In patent US20160046604A1, “HETEROARYL SUBSTITUTED INDAZOLES” (BAYER PHARMA AKTIENGESELLSCHAFT, priority 2013, published 2016):

Columns and labels:
[1] = tested on: HeLa human cervical tumor cells; experiment: Proliferation assay (HeLa cell line); conditions: 96 h, read-out: Biological Assay 2: Proliferation assay (HeLa cell line) median IC50;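 further: crystal violet staining, absorbance at 595 nm, 0.001–10 µM test range, 4-day exposure, 0% is cell number at dosing and 100% untreated growth, IC50 from 4-parameter fit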
Experimental: Cultivated HeLa human cervical tumor cells (cells were ordered from ATCC CCL-2) were plated at a density of 3000 cells/well in a 96-well multititer plates in 200 microL DMEM/HAMS F12 culture medium (Biochrom F4815) supplemented with 10% fetal calf serum. After 24 hours, the cells of one plate (zero-point plate) were stained with crystal violet (see below), while the medium of the other plates was replaced by fresh culture medium (200 microL) containing the test substances in various concentrations (0 microM, as well as in the range of 0.001-10 microM; the final concentration of the solvent dimethyl sulfoxide was 0.5%). The cells were incubated for 4 days in the presence of test substances. Cell proliferation was determined by staining the cells with crystal violet: the cells were fixed by adding 20 microL/measuring point of an 11% glutaric aldehyde solution for 15 minutes at room temperature. After three washing cycles of the fixed cells with water, the plates were dried at room temperature. The cells were stained by adding 100 microL/measuring point of a 0.1% crystal violet solution (pH 3.0). After three washing cycles of the stained cells with water, the plates were dried at room temperature. The dye was dissolved by adding 100 microL/measuring point of a 10% acetic acid solution. Absorption was determined by photometry at a wavelength of 595 nm. The change of cell number, in percent, was calculated by normalization of the measured values to the absorption values of the zero-point plate (=0%) and the absorption of the untreated (0 microM) cells (=100%). The IC50 values were determined by means of a 4 parameter fit.

[2] = molecular target: T1, catalytic domain of human Bub1 (amino acids 704-1085) (Homo sapiens, UniProt O43683); experiment: Bub1 kinase assay (TR-FRET); type: biochemical
T1 construct: catalytic domain of human Bub1 (amino acids 704-1085); His6 (N); made in house; host or cells: Hi5 insect cells
Experimental: To this end, 100-fold concentrated compound solutions (in DMSO) were previously prepared by serial dilution (1:3.4) of 2 mM stocks in a clear low volume 384-well source microtiter plate (Greiner Bio-One, Frickenhausen, Germany), from which 50 nL of compounds were transferred into a black low volume test microtiter plate from the same supplier. […] The resulting mixture (5 μL final volume) was incubated at 22° C. during 60 min., and the reaction was stopped by the addition of 5 μL of an aqueous EDTA-solution (50 mM EDTA, in 100 mM HEPES pH 7.5 and 0.2% (w/v) bovine serum albumin) which also contained the TR-FRET detection reagents (0.2 μM streptavidin-XL665 [Cisbio Bioassays, Codolet, France] and 1 nM anti-phoshoSerine antibody [Merck Millipore, cat. #35-001] and 0.4 nM LANCE EU-W1024 labeled anti-mouse IgG antibody [Perkin-Elmer, product no. AD0077, alternatively a Terbium-cryptate-labeled anti-mouse IgG antibody from Cisbio Bioassays can be used]). The stopped reaction mixture was further incubated 1 h at 22° C. in order to allow the formation of complexes between peptides and detection reagents. Subsequently, the amount of product was evaluated by measurement of the resonance energy transfer from the Eu-chelate-antibody complex recognizing the Phosphoserine residue to the streptavidin-XL665 bound to the biotin moiety of the peptide. […] IC50 values were calculated by fitting the normalized inhibition data to a 4-parameter logistic equation (Minimum, Maximum, IC50, Hill; Y=Max+(Min−Max)/(1+(X/IC50)Hill)).

T1 sequence (O43683 704-1085): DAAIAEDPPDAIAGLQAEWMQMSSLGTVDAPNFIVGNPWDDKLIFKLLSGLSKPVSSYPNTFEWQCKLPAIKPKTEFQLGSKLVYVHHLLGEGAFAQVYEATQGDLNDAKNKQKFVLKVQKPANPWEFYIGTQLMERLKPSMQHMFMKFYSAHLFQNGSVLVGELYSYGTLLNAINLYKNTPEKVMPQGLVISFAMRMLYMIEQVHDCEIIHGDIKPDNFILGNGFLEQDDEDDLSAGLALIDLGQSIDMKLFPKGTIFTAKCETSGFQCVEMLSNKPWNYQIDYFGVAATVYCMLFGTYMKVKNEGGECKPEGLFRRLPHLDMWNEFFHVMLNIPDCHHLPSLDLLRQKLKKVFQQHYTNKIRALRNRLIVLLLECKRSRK

Q: With Cc1noc(C)c1Cn1nc(-c2nc(N)cc(Nc3ccncc3)n2)c2ccccc21 [Example 2-3-2, 2-{1-[(3,5-dimethyl-1,2-oxazol-4-yl)methyl]-1H-indazol-3-yl}-N-(pyridin-4-yl)pyrimidine-4,6-diamine] as the compound, how does the IC50 [1] read?
A: The IC50 was 6.7 µM.

Q: What about the IC50 [2] of the same compound?
A: Its IC50 is 16 nM.

Q: Which results are given for Cc1noc(C)c1Cn1nc(-c2nc(N)cc(Nc3ccncn3)n2)c2ccccc21 [Example 2-3-3, 2-{1-[(3,5-dimethyl-1,2-oxazol-4-yl)methyl]-1H-indazol-3-yl}-N-(pyrimidin-4-yl)pyrimidine-4,6-diamine]?
A: IC50 [1]: 0.65 µM; IC50 [2]: 31 nM

Q: Cc1noc(C)c1Cn1nc(-c2nc(Nc3ccncc3)cc(Nc3ccncc3)n2)c2ccccc21 [Example 2-3-4, 2-{1-[(3,5-dimethyl-1,2-oxazol-4-yl)methyl]-1H-indazol-3-yl}-N,N′-di(pyridin-4-yl)pyrimidine-4,6-diamine] was tested. Which IC50 [1] did it give?
A: Its IC50 is 4 µM.

Q: And the IC50 [2]?
A: Its IC50 is 330 nM.

Q: With Cc1noc(C)c1Cn1nc(-c2nc(Nc3ccncn3)cc(Nc3ccncn3)n2)c2ccccc21 [Example 2-3-5, 2-{1-[(3,5-dimethyl-1,2-oxazol-4-yl)methyl]-1H-indazol-3-yl}-N,N′-di(pyrimidin-4-yl)pyrimidine-4,6-diamine] as the compound, how does the IC50 [1] read?
A: Its IC50 is over 10 µM.

Q: And the IC50 [2]?
A: Its IC50 is 150 nM.
